Experimental data taken from patent US5830672A, “Elisa kit for the rapid determination of N-acetyltransferase (NAT2) phenotypes” (priority 1996, dated 1998).

How the values were obtained:
[1] = test system: AAMU-Ab; assay: Competitive antigen ELISA, cross-reactivity of AAMU-Ab; format: binding, rabbit; conditions: for % Cross-Reaction AAMU-Ab: 0 = absence of inhibition or inhibition no higher than 40% at highest concentration tested (5 × 10^-3 M)
Method: (§1) Four mature females New Zealand white rabbits (Charles River Canada, St-Constant, Que., Canada) were used for antibody production. The protocol employed in this study was approved by the McGill University Animal Care Committee in accordance with the guidelines from the Canadian Council on Animal Care. An isotonic saline solution (0.6 mL) containing […] of BSA conjugated antigen was emulsified with 0.6 mL of a complete Freund's adjuvant. 0.5 mL of the emulsion (100 mg of antigen) was injected per rabbit intramuscularly or subcutaneously. Rabbits were subsequently boosted at intervals of three weeks with 50 mg of antigen emulsified in incomplete Freund's adjuvant. Blood was collected by venipuncture of the ear 10-14 days after boosting. Antisera were stores at 4° C. in the presence of 0.01% sodium azide. Buffers and water without additives were filtered through millipore filters and kept for 1 week. BSA, antibodies, Tween™ 20 and horse radish peroxidase conjugates were added to these buffers and water just prior to use. Urine samples were usually collected 4 hours after drinking a cup of coffee (instant or brewed with approximately 100 mg of caffeine per cup) and stored at -80° C. They were diluted 10 times with sodium phosphate buffer (620 mosm, pH 7.50) and were subsequently diluted with water to give concentrations of AAMU and 1X no higher than 3×10^-6 M in the ELISA. All the pipettings were done with an eight-channel pipette, except those of the antibody and sample solutions. Starting with the last well, 100 μL of a carbonate buffer (100 mM, pH 9.6) containing 2.5 μg mL^-1 antibodies was pipetted. […] After the initial wash, unoccupied sites were blocked by incubation for 90 min. at room temperature with 100 μL TPB containing 3% BSA. The wells were washed four times with 100 μL TPB. […] AAMU or 1X, 2×10^-4 to 2×10^-8 M) or sample in duplicate. The microplate was gently shaken with an orbital shaker at room temperature for 3-4 hours. […] To the washed plate was added 150 μL of a substrate buffer composed of citric acid (25 mM) and sodium phosphate dibasic buffer (50 mM, pH 5.0) containing 0.06% hydrogen peroxide and 0.04% o-phenylenediamine hydrochloride. […] Buffers and water without additives were filtered through millipore filters and kept for 1 week. BSA, antibodies, Tween™ 20 and horse radish peroxidase conjugates were added to these buffers and water just prior to use. Urine samples were usually collected 4 hours after drinking a cup of coffee (instant or brewed with approximately 100 mg of caffeine per cup) and stored at -80° C. They were diluted 10 times with sodium phosphate buffer (620 mosm, pH 7.50) and were subsequently diluted with water to give concentrations of AAMU and 1X no higher than 3×10^-6 M in the ELISA. All the pipettings were done with an eight-channel pipette, except those of the antibody and sample solutions. Starting with the last well, 100 μL of a carbonate buffer (100 mM, pH 9.6) containing 2.5 μg mL^-1 antibodies was pipetted. […] After the initial wash, unoccupied sites were blocked by incubation for 90 min. at room temperature with 100 μL TPB containing 3% BSA. The wells were washed four times with 100 μL TPB. […] AAMU or 1X, 2×10^-4 to 2×10^-8 M) or sample in duplicate. The microplate was gently shaken with an orbital shaker at room temperature for 3-4 hours. […] To the washed plate was added 150 μL of a substrate buffer composed of citric acid (25 mM) and sodium phosphate dibasic buffer (50 mM, pH 5.0) containing 0.06% hydrogen peroxide and 0.04% o-phenylenediamine hydrochloride. […] Each curve represents triplicate determinations in a single run. The error bars represent standard deviations. For data point with no error bars, the error bars are less the size of the symbol. […] The cross reactivities of AAMU-Ab and 1X-Ab were tested using a wide variety of caffeine metabolites and structural analogs (Table 1 below).

[2] = test system: 1X-Ab; assay: Competitive antigen ELISA, cross-reactivity of 1X-Ab; format: binding, rabbit; conditions: for % Cross-Reaction 1X-Ab: 0 = absence of inhibition or inhibition no higher than 40% at highest concentration tested (5 × 10^-3 M)
Method: as §1

[3] = test system: N-acetyltransferase (NAT2); conditions: rapid acetylators at greater risk of severe toxicity; cited from earlier work

| Compound | % Cross-Reaction AAMU-Ab [1] | % Cross-Reaction 1X-Ab [2] | IC50 ([1]; AAMU-Ab, read-out: concentration required for 50% inhibition in the competitive antigen ELISA) | IC50 ([2]; 1X-Ab, read-out: concentration required for 50% inhibition in the competitive antigen ELISA) | correlation between toxicity and acetylator phenotype [3] |
| --- | --- | --- | --- | --- | --- |
| Cn1c(=O)[nH]c2ncn(C)c2c1=O [1,7-Dimethyl Xanthine (Paraxanthine), 1,7-Dimethyl Xanthine] | 0% | 0.5% |  |  |  |
| Cn1c(=O)c2[nH]cnc2n(C)c1=O [1,3-Dimethyl Xanthine (Theophylline), 1,3-Dimethyl Xanthine] | 0% | 0.2% |  |  |  |
| Cn1c(=O)c2c(ncn2C)n(C)c1=O [1,3,7-Trimethyl Xanthine (Caffeine), 1,3,7-Trimethyl Xanthine] | 0% | 0% |  |  |  |
| O=c1[nH]cnc2nc[nH]c12 [Hypoxanthine] | 0% | 0% |  |  |  |
| O=c1[nH]c(=O)c2[nH]cnc2[nH]1 [Xanthine] | 0% | 0% |  |  |  |
| Cn1c(=O)[nH]c2[nH]c(=O)n(C)c2c1=O [1,7-Dimethyluric acid] | 0% | 0% |  |  |  |
| Cn1cnc2[nH]c(=O)[nH]c(=O)c21 [7-Methyl Xanthine] | 0% | 0% |  |  |  |
| O=c1cc[nH]c(=O)[nH]1 [Uracil] | 0% | 0% |  |  |  |
| Cn1cnc2c1c(=O)[nH]c(=O)n2C [3,7-Dimethyl Xanthine (Theobromine), 3,7-Dimethyl Xanthine] | 0% | 0% |  |  |  |
| Cn1c(=O)[nH]c2[nH]c(=O)[nH]c2c1=O [1-Methyluric acid] | 0% | 11% |  |  |  |
| Cn1c(=O)[nH]c(=O)c2[nH]cnc21 [3-Methyl Xanthine] | 0% | 0% |  |  |  |
| CC(=O)Nc1c(N)n(C)c(=O)n(C)c1=O [5-Acetamino-6-amino-1,3-dimethyluracil] | 0% | 0% |  |  |  |
| CC(=O)Nc1c(N)[nH]c(=O)n(C)c1=O | 100% | 0% | 1.5 µM |  |  |
| O=c1[nH]c(=O)c2[nH]c(=O)[nH]c2[nH]1 [Uric acid] | 0% | 0% |  |  |  |
| Cn1c(=O)[nH]c2nc[nH]c2c1=O [1-Methyl Xanthine (1X), 1-Methyl Xanthine] | 0% | 100% |  | 10 µM |  |
| Nc1nc2nc[nH]c2c(=O)[nH]1 [Guanine] | 0% | 0% |  |  |  |
| CC(=O)Nc1c(N)[nH]c(=O)[nH]c1=O [5-Acetamino-6-amino-uracil] | 0.6% | 0% |  |  |  |
| Cc1nc2[nH]c(=O)[nH]c(=O)c2[nH]1 [8-Methyl Xanthine] | 0% | 0% |  |  |  |
| CN(C)CCN1C(=O)c2cccc3cc(N)cc(c23)C1=O [amonafide] |  |  |  |  | direct correlation between toxicity and the acetylator phenotype |
